According to patent publication US7713988B2, “4,5-diphenyl-pyrimidinylamino substituted carboxylic acids, method for the production and use thereof as medicaments” (Sanofi-Aventis, priority 2006, dated 2010):

target: T1, GPCR GPR40 (Homo sapiens, UniProt O14842); experiment: In vitro FLIPR assay with recombinant cells which express the GPCR GPR40 (intracellular Ca2+ change); type: cell-based; conditions: 100 μM test substance; recombinant HEK293 cells expressing GPR40; relative to control (0%: no test substance; 100%: 10 μM reference agonist linoleic acid)
T1 construct: expressed in transfected cells; host or cells: HEK293
Description: In vitro FLIPR assay with recombinant cells which express the GPCR GPR40 Function-testing assays were carried out by means of the FLIPR technique (“Fluorescence Imaging Plate Reader”, Molecular Devices Corp.). For this purpose, agonist-induced changes in the intracellular concentration of Ca^2+ in recombinant HEK293 cells which expressed the GPCR GPR40 were determined.
For the investigations, cells were seeded in 96-well microtiter plates (60 000 cells/well) and allowed to grow overnight. The medium was removed and the cells were incubated in buffer which contained the fluorescent dye fluo-4. After this loading with dye, the cells were washed, test substance was added, and changes in the intracellular Ca^2+ concentration were measured in the FLIPR instrument. Results have been presented as percentage change relative to the control (0%: no test substance added; 100%:10 μM reference agonist linoleic acid added).

T1 sequence (O14842 whole entry): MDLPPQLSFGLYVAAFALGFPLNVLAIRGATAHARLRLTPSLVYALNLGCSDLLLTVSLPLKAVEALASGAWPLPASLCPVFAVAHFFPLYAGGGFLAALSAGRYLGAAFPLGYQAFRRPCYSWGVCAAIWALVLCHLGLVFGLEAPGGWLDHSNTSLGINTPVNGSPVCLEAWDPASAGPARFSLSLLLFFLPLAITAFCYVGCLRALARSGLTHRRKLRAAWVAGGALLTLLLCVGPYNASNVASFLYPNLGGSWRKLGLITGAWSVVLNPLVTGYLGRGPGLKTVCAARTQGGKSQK

Row | SMILES | % activation @ 100 μM [%]
1 | O=C(O)C(F)(F)F.O=C(O)CCCCCNc1ncc(-c2ccccc2)c(-c2ccccc2)n1 [Example 5, 6-(4,5-Diphenylpyrimidin-2-ylamino)hexanoic acid trifluoroacetate] | 73
2 | O=C(O)C(F)(F)F.O=C(O)CCCCCCCNc1ncc(-c2ccccc2)c(-c2ccccc2)n1 [Example 3, 8-(4,5-Diphenylpyrimidin-2-ylamino)octanoic Acid Trifluoroacetate] | 104
3 | O=C(O)C(F)(F)F.O=C(O)CCCCCCNc1ncc(-c2ccccc2)c(-c2ccccc2)n1 [Example 4, 7-(4,5-Diphenylpyrimidin-2-ylamino)heptanoic Acid Trifluoroacetate] | 94
4 | O=C(O)C1CCC(CNc2ncc(-c3ccccc3)c(-c3ccccc3)n2)CC1 (stereo not shown) [Example 1, 4-[(4,5-Diphenylpyrimidin-2-ylamino)methyl]cyclohexanecarboxylic acid] | 79
